In patent publication US20070213282A1, “Peroxisome proliferator-activated receptor (PPAR) activator, and drugs, supplements, functional foods and food additives using the same” (ARKRAY, Inc., priority 2004, published 2007):

How the values were obtained:
aP2 mRNA in 3T3-L1 = assay: aP2 mRNA expression in differentiating 3T3-L1 preadipocytes (Light Cycler, ratio to 36B4); assay type: cell-based; conditions: 3T3-L1, 7 days after differentiation induction, non-treatment control = 100, average ± standard error
Experimental: (§1) (Differentiation Induction of Preadipocyte)
(§2) 1. Differentiation Induction Medium (0.25 μM DEX, 0.5 mM MIX, 10 μg/ml insulin/10% FBS/DMEM)
(§3) 55 ml of FBS (fetal bovine serum (available from GIBCO)) was added to 500 ml of DMEM (available from SIGMA) so as to prepare 10% FBS/DMEM. To this 10% FBS/DMEM, 138.75 μl of 1 mM DEX (dexamethasone)/DMSO (available from Nacalai Tesque, Inc.) and 555 μl of 10 mg/ml insulin/PBS (available from SIGMA) were added. Note here that the insulin/PBS was obtained by adding 1 N HCl to PBS in advance so as to make the solution acidic enough to allow insulin dissolution and then dissolving insulin. MIX (3-isobutyl-1-methylxanthine) (available from Nacalai Tesque, Inc.) was added to a necessary amount of the above-described medium immediately before use in such a manner as to achieve 0.5 mM concentration, thereby preparing a differentiation induction medium. Since MIX was very difficult to dissolve, it first was dissolved in a small amount of 99.5% ethanol and then added to 10% FBS/DMEM.
2. Differentiation Promotion Medium (5 μg/ml Insulin/10% FBS/DMEM) […]
Next, cultured preadipocytes 3T3-L1 were thawed, inoculated in a 100 mm dish and cultured until the 3T3-L1 cells reached about 80% confluence. […] 7 days after the initiation of the differentiation induction, mRNA was extracted using a Sepasol-RNA I Super (trade name; available from Nacalai Tesque, Inc.), and the mRNA expression amounts of 36B4, aP2 and adiponectin, which were indicators of an early period of adipocyte differentiation, were measured using a Light Cycler™.
(§4) The medium was removed from the above-described Swell plate, 1 ml of Sepasol-RNA I Super (available from Nacalai Tesque, Inc.) was added to each well, and pipetting was repeated several times so as to disperse the cells. […] The resultant precipitate (total RNA) was dried and then dissolved in 20 μl of nuclease free water, and the concentration of mRNA was measured using Nanoprop (available from SCRUM Inc.).
(§5) The extracted and measured mRNA solution was adjusted to have an mRNA concentration of 1 μg/μl. […]

[1] = target: T1, human PPARγ ligand-binding domain (Homo sapiens, UniProt P37231); assay: PPARγ ligand activity, GAL4-hPPARγ luciferase reporter assay in CV-1 cells; assay type: cell-based; conditions: for PPARγ ligand activity: luciferase activity relative to non-treatment control (DMSO) = 100, average ± standard error, n=4
T1 construct: expressed in transfected cells; host or cells: CV-1 cells (African green monkey kidney)
T1 sequence (P37231 204-505): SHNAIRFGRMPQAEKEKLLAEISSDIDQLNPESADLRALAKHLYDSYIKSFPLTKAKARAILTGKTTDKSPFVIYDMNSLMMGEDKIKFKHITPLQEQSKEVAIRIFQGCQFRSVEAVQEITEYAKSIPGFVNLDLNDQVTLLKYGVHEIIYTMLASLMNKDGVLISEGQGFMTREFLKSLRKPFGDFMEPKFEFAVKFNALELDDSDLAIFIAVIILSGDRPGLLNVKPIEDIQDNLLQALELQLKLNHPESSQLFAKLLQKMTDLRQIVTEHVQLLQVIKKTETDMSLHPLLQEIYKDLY
Experimental: First, CV-1 cells (cultured cells derived from kidneys of male African green monkeys) were inoculated on 24-well culture plates so as to be […] and cultured at 37° C. in 5% CO2 for 24 hours. As a medium, DMEM (Dulbecco's Modified Eagle Medium; available from GIBCO) containing 10% FBS (fetal bovine serum) and a 10 mg/ml penicillin streptomycin solution was used. Next, using the Lipofectamine system (Invitrogen Corporation), pM-hPPARγ and p4×UASg-tk-luc were transfected into the cultured CV-1 cells. The above-noted pM-hPPARγ was a vector for expressing fusion protein containing residues 1-147 of GAL4 binding domain and residues 204-505 of human PPARγ ligand-binding domain, and the above-noted p4×UASg-tk-luc was a reporter plasmid containing four copies of an upstream activating sequence (UAS) for GAL4 binding domain and a thymidine kinase gene promoter upstream of a luciferase gene. After the transfection, the cells were cultured for about 24 hours, and then, the media for the cells were changed to media containing nobiletin at respective concentrations (0.1, 1.0, and 50 μM) or media for non-treatment control, followed by an additional 24 hour culture. The above-noted media containing nobiletin were prepared by adding nobiletin dissolved in dimethyl sulfoxide (DMSO) to the media, whereas the media for non-treatment control were prepared by adding only DMSO to the media. After the culture, the cells were lysed and the measurement of luciferase activity was performed using a Dual-Luciferase
Reporter Gene Assay system (available from Promega Corporation) (Measurement Group).
Similarly to the measurement group, as a control group, the measurement of luciferase activity was performed using pM (a vector containing residues 1-147 of GAL4 binding domain and not containing residues 204-505 of PPARγ ligand-binding domain in pM-hPPARγ) instead of the pM-hPPARγ. For each sample, the ratio between average luminescence intensities of the measurement group and the control group (n=4) (measurement group/control group) was calculated, and the luciferase activity relative to the non-treatment control was determined as the PPARγ ligand-binding activity of the sample.

[2] = system: adiponectin mRNA in 3T3-L1; assay: adiponectin mRNA expression in differentiating 3T3-L1 preadipocytes (Light Cycler, ratio to 36B4); assay type: cell-based; conditions: for Adiponectin mRNA expression amount (ratio to 36B4): 3T3-L1, 7 days after differentiation induction, non-treatment control = 100, average ± standard error
Experimental: as §1, §2, §3
2. Differentiation Promotion Medium (5 μg/ml Insulin/10% FBS/DMEM)
A differentiation promotion medium was prepared by adding 277.5 μl of 10 mg/ml insulin/PBS to 555 ml of 10% FBS/DMEM.
Next, cultured preadipocytes 3T3-L1 were thawed, inoculated in a 100 mm dish and cultured until the 3T3-L1 cells reached about 80% confluence. A single dish of 3T3-L1 that had reached about 80% confluence was subcultured to a single 6-well plate and further cultured until the 3T3-L1 cells reached confluence in the 6-well plate, and then the medium was replaced with the differentiation induction medium, followed by differentiation induction. 48 hours later, the medium was replaced with the differentiation promotion medium, and thereafter, the medium was replaced with the differentiation promotion medium every two days. 7 days after the initiation of the differentiation induction, mRNA was extracted using a Sepasol-RNA I Super (trade name; available from Nacalai Tesque, Inc.), and the mRNA expression amounts of 36B4, aP2 and adiponectin, which were indicators of an early period of adipocyte differentiation, were measured using a Light Cycler™.
as §4, §5

[3] = system: spontaneously diabetic mice (KK-A^y); assay: adiponectin secretion amount in serum of spontaneously diabetic mice (KK-Ay), ELISA; assay type: in vivo
Source text: The present example verified the diabetes relieving-effect of nobiletin through an experiment using spontaneously diabetic mice (KK-A^y).
First, twelve spontaneously diabetic mice (6-week old, female) were fed preliminarily with normal diet for one week. Next, the mice were divided into two groups, namely, a control group and a NOB group (n=6) such that the average weights of these two groups were the same. Then, the mice of the control group were fed with high-fat diet only, whereas the mice of the NOB group were fed with high-fat diet containing 0.02% nobiletin. 27 days or 28 days after the initiation of feeding, serum was collected from these mice. […]
Only the strips of the antibody plates necessary for the analysis were taken out. […] Thereafter, 100 μl of the standard solutions with respective concentrations and 100 μl of the diluted specimen solutions were added to the individual wells and measured in duplicate. Note here that the standard solutions always were measured for each measurement and each plate. […] After 100 μl of the substrate solution was added to each well of the antibody plate and allowed to stand still for reaction for 15 minutes at room temperature, 100 μl of the reaction stop solution was added to each well of the antibody plate, and then the absorbance at 450 nm in each well was measured with a plate reader. […]

With `COc1ccc(-c2cc(=O)c3c(OC)c(OC)c(OC)c(OC)c3o2)cc1OC` [nobiletin] as the molecule, how does the “aP2 mRNA expression amount (ratio to 36B4)” value (aP2 mRNA in 3T3-L1; 5 μM) read?
Its value is 193.7 ± 41.4.

And the “aP2 mRNA expression amount (ratio to 36B4)” value (aP2 mRNA in 3T3-L1; 10 μM)?
The value was 273.1 ± 13.8.

And the “aP2 mRNA expression amount (ratio to 36B4)” value (aP2 mRNA in 3T3-L1; 1 μm)?
The value was 155.8 ± 21.7.

What about the PPARγ ligand activity ([1]; 0.1 μM) of the same molecule?
The PPARγ ligand activity was 96.5 ± 10.8.

What about the PPARγ ligand activity ([1]; 1.0 μM) of the same molecule?
The PPARγ ligand activity was 156.8 ± 11.3.

What about the PPARγ ligand activity ([1]; 10 μM) of the same molecule?
Its PPARγ ligand activity is 200.5 ± 55.1.

And the PPARγ ligand activity ([1]; 50 μM)?
The PPARγ ligand activity was 246 ± 41.7.

What about the “PPARγ activity, result in words” value ([1]; 0.1-50 μM, versus non-treatment control) of the same molecule?
The value was “increased significantly in keeping with the concentration of nobiletin”.

What about the “Adiponectin mRNA expression amount (ratio to 36B4)” value ([2]; 5 μM) of the same molecule?
The value was 265.1 ± 60.4.

What about the “Adiponectin mRNA expression amount (ratio to 36B4)” value ([2]; 10 μM) of the same molecule?
Its value is 352.3 ± 28.5.

And the “Adiponectin mRNA expression amount (ratio to 36B4)” value ([2]; 1 μm)?
The value was 164.9 ± 18.7.

What about the “secretion of adiponectin in adipocytes, result in words” value ([2]; 3T3-L1 cultured with nobiletin versus non-treated control medium) of the same molecule?
Its value is “enhance the secretion of adiponectin in the adipocytes significantly”.

What about the Adiponectin secretion amount ([3]; KK-Ay mice, high-fat diet containing 0.02% nobiletin, serum 27 or 28 days after initiation of feeding, average ± standard error, n=6, control group 4.78 ± 0.096) of the same molecule?
The Adiponectin secretion amount was 7.18 ± 0.50.

And the “adiponectin secretion amount, result in words” value ([3]; diabetic mice of NOB group versus control group)?
Its value is “increase the adiponectin secretion amount in the adipocytes significantly”.
